Results reported in US20250127759A1, “METHODS AND DOSING REGIMENS COMPRISING A CDK2 INHIBITOR FOR THE TREATMENT OF CANCER” (PFIZER INC., priority 2021, published 2025).
Where “and” joins values, the source holds several entries; their conditions need not be identical. Identical values can stand only once. Like-named read-outs stand apart in the source and are kept apart here.

Key:
ST941PBR PDX = experiment: In vivo efficacy, palbociclib-resistant ST941PBR PDX model; details: Day 28, 150 mg/kg BID PO, 150 mg/kg
Procedure: Female NSG mice (Jackson Lab) were subcutaneously implanted with fragment (27 mm^3 to 64 mm^3 size) into the dorsal region. All mice for T47D, HCC1428 and ST941 PBR studies were supplemented with 8.5 μg/mL estradiol water (β-Estradiol Sigma-Aldrich, cat #E2758-5G) and gave ad libitum till end of study. For the in vivo efficacy studies, tumor volume and body weights were measured twice a week. Tumor volume was calculated using the [(Length×Width×Width)/2)] formula. TGI was calculated as 100*(1−ΔT/ΔC). The ΔC (ΔT) was obtained by subtracting the mean tumor burden in the vehicle (treated) group on the first day of treatment (Day 0) from the mean tumor burden in vehicle (treated) group on the assessment day. Statistical analysis was performed using ANCOVA when the mean tumor volume in vehicle treated mice reached tumor cutoff size.
The ST941 PBR palbociclib resistant model was obtained from XENOSTART™ LLC, San Antonio, Texas. We established model in house by continuous treatment of the ST941 PBR tumor bearing mice with PD-0332991 at 50 mg/kg, PO QD plus fulvestrant at 10 mg/kg, SC twice in the first week, then weekly thereafter. To propagate donors for the TGI study, tumors were transplanted to recipient mice. One week after the re-implantation, the recipient mice received continuous treatment with palbociclib plus fulvestrant (dosing schedule described above). After 1 to 2 serial in vivo propagation with the same treatment regimen, the resistant tumors in the range of 700 to 800 mm^3 were re-implanted for a study expansion. The remaining tumor fragments were viably frozen for future use.
The live donor mice were established by implanting ST941 PBR (p11) tumor fragments. Once reaching a range of 700 to 800 mm^3, the donor tumors were subsequently transplanted into secondary recipient mice for a study expansion. To maintain the resistant clones, the ST941 PBR tumor bearing mice were treated with PD-0332991 at 50 mg/kg, PO. QD plus fulvestrant at 10 mg/kg, SC twice in the first week, then weekly afterwards for 10 weeks. […] TGI was assessed on Day 28 post first dose.

OVCAR3 cells = experiment: Proliferation inhibition, OVCAR3; type: cell-based; details: Homo sapiens, OVCAR-3, 168 h, treated for 7 days
Procedure: (§1) Anti-proliferative activity was measured in cells treated for 7 days with PF-07104091 in OVCAR3 cells, Rb mutant NCI-H526 SCLC cells, and both HR-positive HER2-negative MCF7 and the subline MCF7-PalboR (resistant to palbociclib).

MCF7 cells = experiment: Proliferation inhibition, MCF7; type: cell-based; details: Homo sapiens, 168 h, treated for 7 days
Procedure: as §1

[1] = Phase 1/2a study, plasma pharmacokinetics of PF-07104091; type: in vivo, human
Source text: Blood samples will be collected for measurement of plasma concentrations of PF-07104091 as specified in the protocol. Samples will be used to evaluate the PK of PF-07104091. Samples collected for analyses of PF-07104091 plasma concentration may also be used to evaluate safety or efficacy aspects related to concerns arising during or after the study, for metabolite identification and/or evaluation of the bioanalytical method, or for other internal exploratory purposes.
Plasma PF-07104091 concentrations will be summarized descriptively (n, mean, standard deviation, coefficient of variation, median, minimum, maximum, geometric mean and its associated coefficient of variation) by dose, cycle, day and nominal time. Individual participant plasma PF-07104091 concentration-time data within a dose interval (with exception of the food effect substudy) after Cycle 1 Day 1 and Cycle 1 Day 15 will be analyzed using noncompartmental methods to determine single and multiple dose PK parameters. For participants in the food effect substudy, individual plasma PF-07104091 concentration-time data after Cycle 1 Day 15 and Cycle 1 Day 16 will be analyzed using noncompartmental methods to determine multiple dose PK parameters. For Part 1 of the study, single dose PK parameters to be estimated will include the Cmax, Tmax, and AUClast, and if data permit, t1/2, CL/F, and Vz/F. Multiple dose PK parameters to be estimated will include Cmax,ss, Tmax,ss, AUCT,ss, Cmin,ss, CL/F,ss, and if data permit, V/Fss, t1/2, and Rac. For Part 2 of the study (with exception of the food effect substudy), single dose PK parameters to be estimated will include Cmax, Tmax and AUClast. Multiple dose PK parameters to be estimated will include Cmax,ss, Tmax,ss, AUClast, Cmin,ss, and Rac. The single dose and steady state PK parameters will be summarized descriptively (n, mean, standard deviation, coefficient of variation, median, minimum, maximum, geometric mean and its associated coefficient of variation) by dose level, cycle and day. For participants in the food effect substudy, multiple dose PK parameters to be estimated will include Cmax,ss, AUCT,ss, Tmax,ss, Cmin,ss, CL/Fss, and if data permit, V/Fss and t1/2.
An ongoing Phase 1/2a, open-label, multicenter, multiple dose study is being conducted to determine the safety, tolerability, PK, PD, and preliminary anti-tumor activity of PF-07104091 as a single agent and in combination with endocrine therapy. PF-07104091 is administered orally twice daily (BID) during 28-day cycles.
Preliminary concentration-time data of PF-07104091 following single and multiple oral administration at 75 mg BID to 500 mg BID as monotherapy or in combination with endocrine therapy alone or in combination with palbociclib and endocrine therapy were available from 44 participants with advanced solid tumors and HR-positive HER2-negative advanced or metastatic breast cancer. The preliminary concentration-time data were analyzed by noncompartmental approach using actual PK sampling times.
[…] Individual values are listed when the number of participants with available parameters is less than 3.

[2] = Cycle 1 Day 1, single oral dose, 375 mg BID monotherapy, individual values
[3] = Cycle 1 Day 15, repeated BID oral, 75 mg BID monotherapy, individual values

COCc1cc(C(=O)Nc2cc([C@H]3CC[C@@H](OC(=O)NC(C)C)C3)[nH]n2)n(C)n1 [PF-07104091, (1R,3S)-3-[3-({[3-(methoxymethyl)-1-methyl-1H-pyrazol-5-yl]carbonyl}amino)-1H-pyrazol-5-yl]cyclopentyl propan-2-ylcarbamate]
TGI % (ST941PBR PDX): 34% | IC50 (OVCAR3 cells): 0.119 µM | IC50 (MCF7 cells): 0.252 µM | AUClast [1, 2]: 14424 ng·h/mL | Cmax [1, 2]: 2890 ng/mL | Tmax [1, 2]: 4.0, 4.0 h | Rac ([1]; Cycle 1 Day 15, repeated BID oral, 75 mg BID (1B), with palbociclib and fulvestrant, arithmetic mean ± SD): 1.2 ± 0.1 | AUClast [1, 3]: 2321, ng*h/mL | Cmax [1, 3]: 398, ng/mL | Rac [1, 3]: 1.4 and 2.7 | Rac ([1]; Cycle 1 Day 15, repeated BID oral, 150 mg BID monotherapy, arithmetic mean ± SD): 1.8 ± 0.2 | Rac ([1]; Cycle 1 Day 15, repeated BID oral, 225 mg BID monotherapy, arithmetic mean ± SD): 1.8 ± 0.7 | Rac ([1]; Cycle 1 Day 15, repeated BID oral, 300 mg BID monotherapy, arithmetic mean ± SD): 1.9 ± 1.1 | Rac ([1]; Cycle 1 Day 15, repeated BID oral, 500 mg BID monotherapy, individual value, N = 1): 1.1 | accumulation ([1]; following repeated BID administration): moderate accumulation | half-life ([1]; human, plasma, po, 75 mg BID to 500 mg BID, read-out: average half-life (converted)): ~2 h | half-life ([1]; human, plasma, po, 75 mg, Cycle 1 Day 1, single oral dose, 75 mg BID (1B), with palbociclib and fulvestrant, arithmetic mean ± SD, read-out: t1/2 (converted)): 1.9 ± 0.2 h | AUC(0-t) ([1]; human, plasma, po, 75 mg, Cycle 1 Day 1, single oral dose, 75 mg BID (1B), with palbociclib and fulvestrant, geometric mean (CV %)): 2.76 µg·h/mL | Cmax ([1]; human, plasma, po, 75 mg, Cycle 1 Day 1, single oral dose, 75 mg BID (1B), with palbociclib and fulvestrant, geometric mean (CV %), read-out: Cmax): 694 ng/mL | Tmax ([1]; human, plasma, po, 75 mg, Cycle 1 Day 1, single oral dose, 75 mg BID (1B), with palbociclib and fulvestrant, median (range), read-out: Tmax): 1.6 h | half-life ([1]; human, plasma, po, 75 mg, Cycle 1 Day 1, single oral dose, 75 mg BID (1C), with palbociclib and letrozole, arithmetic mean ± SD, read-out: t1/2 (converted)): 1.6 ± 0.5 h | AUC(0-t) ([1]; human, plasma, po, 75 mg, Cycle 1 Day 1, single oral dose, 75 mg BID (1C), with palbociclib and letrozole, geometric mean (CV %)): 2.46 µg·h/mL | Cmax ([1]; human, plasma, po, 75 mg, Cycle 1 Day 1, single oral dose, 75 mg BID (1C), with palbociclib and letrozole, geometric mean (CV %), read-out: Cmax): 648 ng/mL | Tmax ([1]; human, plasma, po, 75 mg, Cycle 1 Day 1, single oral dose, 75 mg BID (1C), with palbociclib and letrozole, median (range), read-out: Tmax): 0.5 h | half-life ([1]; human, plasma, po, 75 mg, Cycle 1 Day 1, single oral dose, 75 mg BID monotherapy, arithmetic mean ± SD, read-out: t1/2 (converted)): 2.4 ± 0.7 h | AUC(0-t) ([1]; human, plasma, po, 75 mg, Cycle 1 Day 1, single oral dose, 75 mg BID monotherapy, geometric mean (CV %)): 1.75 µg·h/mL | Cmax ([1]; human, plasma, po, 75 mg, Cycle 1 Day 1, single oral dose, 75 mg BID monotherapy, geometric mean (CV %), read-out: Cmax): 362 ng/mL | Tmax ([1]; human, plasma, po, 75 mg, Cycle 1 Day 1, single oral dose, 75 mg BID monotherapy, median (range), read-out: Tmax): 2 h | half-life ([1]; human, plasma, po, 75 mg, Cycle 1 Day 15, repeated BID oral, 75 mg BID (1B), with palbociclib and fulvestrant, arithmetic mean ± SD, read-out: t1/2 (converted)): 3.6 ± 0.9 h | AUC(0-t) ([1]; human, plasma, po, 75 mg, Cycle 1 Day 15, repeated BID oral, 75 mg BID (1B), with palbociclib and fulvestrant, geometric mean (CV %)): 3.08 µg·h/mL | Cmax ([1]; human, plasma, po, 75 mg, Cycle 1 Day 15, repeated BID oral, 75 mg BID (1B), with palbociclib and fulvestrant, geometric mean (CV %), read-out: Cmax): 698 ng/mL | Tmax ([1]; human, plasma, po, 75 mg, Cycle 1 Day 15, repeated BID oral, 75 mg BID (1B), with palbociclib and fulvestrant, median (range), read-out: Tmax): 1.2 h | AUC(0-t) ([1]; human, plasma, po, 75 mg, Cycle 1 Day 15, repeated BID oral, 75 mg BID monotherapy, individual values): 3.58 µg·h/mL | Cmax ([1]; human, plasma, po, 75 mg, Cycle 1 Day 15, repeated BID oral, 75 mg BID monotherapy, individual values, read-out: Cmax): 714 ng/mL | Tmax ([1]; human, plasma, po, 75 mg, Cycle 1 Day 15, repeated BID oral, 75 mg BID monotherapy, individual values, read-out: Tmax): 1.1 h
